Measured values as given in ChEMBL document CHEMBL1201862, “PubChem BioAssay data set” (2004).
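A five-concentration, 48-hour dose response in 96-well plates underlies each endpoint, interpolated linearly between surrounding concentrations. GI50 = concentration required for 50% inhibition of growth.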 Activity calls are given as the source filed them. Cut-off read from the data, not from the text of the source: active = GI50 up to about 1.1 µM and inactive = higher.

How the values were obtained:
Assay in all cases: NCI tumour cell line growth inhibition, 48 h
[1] = test system: 786-0
[2] = test system: A498
[3] = test system: A549
[4] = test system: ACHN
[5] = test system: CCRF-CEM
[6] = test system: COLO 205
[7] = test system: DLD-1
[8] = test system: EKVX
[9] = test system: HCC 2998
[10] = test system: HCT-116
[11] = test system: HCT-15
[12] = test system: HL-60
[13] = test system: HOP-18
[14] = test system: HOP-62
[15] = test system: HOP-92
[16] = test system: HT-29
[17] = test system: IGROV-1
[18] = test system: K562
[19] = test system: KM-20L2
[20] = test system: KM12
[21] = test system: LOX IMVI
[22] = test system: LXFL 529
[23] = test system: M14
[24] = test system: M19-MEL
[25] = test system: MOLT-4
[26] = test system: Malme-3M
[27] = test system: NCI-H226
[28] = test system: NCI-H23
[29] = test system: NCI-H460
[30] = test system: NCI-H522
[31] = test system: OVCAR-3
[32] = test system: OVCAR-5
[33] = test system: OVCAR-8
[34] = test system: RPMI-8226
[35] = test system: RXF 393
[36] = test system: RXF 631
[37] = test system: SF-268
[38] = test system: SF-295
[39] = test system: SF-539
[40] = test system: SK-MEL-28
[41] = test system: SK-MEL-2
[42] = test system: SK-MEL-5
[43] = test system: SK-OV-3
[44] = test system: SN12C
[45] = test system: SNB-19
[46] = test system: SNB-75
[47] = test system: SNB-78
[48] = test system: SR
[49] = test system: TK-10
[50] = test system: U-251
[51] = test system: UACC-257
[52] = test system: UACC-62
[53] = test system: UO-31
[54] = test system: CAKI-1
[55] = test system: DMS-114
[56] = test system: DMS-273
[57] = test system: OVCAR-4
[58] = test system: SW-620

**Q.** For `CC(=O)Oc1c(C)c(-c2ccccc2)c(C)c(-c2ccccc2)c1C(=S)c1ccccc1`, which GI50 [1] is on record?
**A.** > 100 µM (inactive)

**Q.** And the GI50 [2]?
**A.** > 100 µM (inactive)

**Q.** And the GI50 [3]?
**A.** > 100 µM (inactive)

**Q.** And the GI50 [4]?
**A.** > 100 µM (inactive)

**Q.** What about the GI50 [5] of the same compound?
**A.** > 100 µM (inactive)

**Q.** What about the GI50 [6] of the same compound?
**A.** > 100 µM (inactive)

**Q.** And the GI50 [7]?
**A.** > 100 µM (inactive)

**Q.** And the GI50 [8]?
**A.** > 100 µM (inactive)

**Q.** And the GI50 [9]?
**A.** > 100 µM (inactive)

**Q.** What about the GI50 [10] of the same compound?
**A.** > 100 µM (inactive)

**Q.** And the GI50 [11]?
**A.** > 100 µM

**Q.** What about the GI50 [12] of the same compound?
**A.** 35.7 µM (inactive)

**Q.** And the GI50 [13]?
**A.** > 100 µM (inactive)

**Q.** And the GI50 [14]?
**A.** > 100 µM (inactive)

**Q.** And the GI50 [15]?
**A.** > 100 µM (inactive)

**Q.** And the GI50 [16]?
**A.** > 100 µM (inactive)

**Q.** And the GI50 [17]?
**A.** > 100 µM (inactive)

**Q.** What about the GI50 [18] of the same compound?
**A.** > 100 µM (inactive)

**Q.** And the GI50 [19]?
**A.** 67.3 µM (inactive)

**Q.** What about the GI50 [20] of the same compound?
**A.** > 100 µM (inactive)

**Q.** And the GI50 [21]?
**A.** > 100 µM (inactive)

**Q.** And the GI50 [22]?
**A.** > 100 µM (inactive)

**Q.** What about the GI50 [23] of the same compound?
**A.** > 100 µM (inactive)

**Q.** What about the GI50 [24] of the same compound?
**A.** > 100 µM (inactive)

**Q.** And the GI50 [25]?
**A.** 93.3 µM (inactive)

**Q.** And the GI50 [26]?
**A.** > 100 µM (inactive)

**Q.** And the GI50 [27]?
**A.** > 100 µM (inactive)

**Q.** And the GI50 [28]?
**A.** > 100 µM (inactive)

**Q.** What about the GI50 [29] of the same compound?
**A.** > 100 µM (inactive)

**Q.** And the GI50 [30]?
**A.** > 100 µM (inactive)

**Q.** And the GI50 [31]?
**A.** > 100 µM (inactive)

**Q.** And the GI50 [32]?
**A.** > 100 µM (inactive)

**Q.** And the GI50 [33]?
**A.** > 100 µM (inactive)

**Q.** What about the GI50 [34] of the same compound?
**A.** 70.8 µM (inactive)

**Q.** And the GI50 [35]?
**A.** > 100 µM (inactive)

**Q.** And the GI50 [36]?
**A.** > 100 µM (inactive)

**Q.** And the GI50 [37]?
**A.** > 100 µM (inactive)

**Q.** What about the GI50 [38] of the same compound?
**A.** > 100 µM (inactive)

**Q.** And the GI50 [39]?
**A.** > 100 µM (inactive)

**Q.** What about the GI50 [40] of the same compound?
**A.** > 100 µM (inactive)

**Q.** And the GI50 [41]?
**A.** > 100 µM (inactive)

**Q.** And the GI50 [42]?
**A.** > 100 µM (inactive)

**Q.** And the GI50 [43]?
**A.** > 100 µM (inactive)

**Q.** And the GI50 [44]?
**A.** > 100 µM (inactive)

**Q.** What about the GI50 [45] of the same compound?
**A.** > 100 µM (inactive)

**Q.** And the GI50 [46]?
**A.** > 100 µM (inactive)

**Q.** What about the GI50 [47] of the same compound?
**A.** > 100 µM (inactive)

**Q.** And the GI50 [48]?
**A.** 41.9 µM (inactive)

**Q.** And the GI50 [49]?
**A.** > 100 µM (inactive)

**Q.** What about the GI50 [50] of the same compound?
**A.** > 100 µM (inactive)

**Q.** What about the GI50 [51] of the same compound?
**A.** > 100 µM (inactive)

**Q.** What about the GI50 [52] of the same compound?
**A.** > 100 µM (inactive)

**Q.** And the GI50 [53]?
**A.** > 100 µM (inactive)

**Q.** With `CC1=C2C(O)C(C(C)CO)C(O)CC2(C)C(O)CC1` (configuration not stated) as the compound, how does the GI50 [1] read?
**A.** > 100 µM (inactive)

**Q.** And the GI50 [2]?
**A.** > 100 µM (inactive)

**Q.** What about the GI50 [3] of the same compound?
**A.** > 100 µM (inactive)

**Q.** And the GI50 [4]?
**A.** > 100 µM (inactive)

**Q.** What about the GI50 [54] of the same compound?
**A.** > 100 µM (inactive)

**Q.** What about the GI50 [5] of the same compound?
**A.** > 100 µM (inactive)

**Q.** And the GI50 [6]?
**A.** > 100 µM (inactive)

**Q.** And the GI50 [7]?
**A.** > 100 µM (inactive)

**Q.** And the GI50 [55]?
**A.** > 100 µM (inactive)

**Q.** And the GI50 [56]?
**A.** > 100 µM (inactive)

**Q.** What about the GI50 [8] of the same compound?
**A.** > 100 µM (inactive)

**Q.** What about the GI50 [9] of the same compound?
**A.** > 100 µM (inactive)

**Q.** And the GI50 [10]?
**A.** > 100 µM (inactive)

**Q.** What about the GI50 [11] of the same compound?
**A.** > 100 µM

**Q.** What about the GI50 [12] of the same compound?
**A.** > 100 µM (inactive)

**Q.** And the GI50 [14]?
**A.** > 100 µM (inactive)

**Q.** What about the GI50 [15] of the same compound?
**A.** > 100 µM (inactive)

**Q.** And the GI50 [16]?
**A.** > 100 µM (inactive)

**Q.** And the GI50 [17]?
**A.** > 100 µM (inactive)

**Q.** What about the GI50 [19] of the same compound?
**A.** > 100 µM (inactive)

**Q.** And the GI50 [20]?
**A.** > 100 µM (inactive)

**Q.** And the GI50 [21]?
**A.** > 100 µM (inactive)

**Q.** What about the GI50 [22] of the same compound?
**A.** > 100 µM (inactive)

**Q.** And the GI50 [23]?
**A.** > 100 µM (inactive)

**Q.** What about the GI50 [24] of the same compound?
**A.** > 100 µM (inactive)

**Q.** And the GI50 [25]?
**A.** > 100 µM (inactive)

**Q.** And the GI50 [26]?
**A.** > 100 µM (inactive)

**Q.** What about the GI50 [27] of the same compound?
**A.** > 100 µM (inactive)

**Q.** And the GI50 [29]?
**A.** > 100 µM (inactive)

**Q.** And the GI50 [30]?
**A.** > 100 µM (inactive)

**Q.** What about the GI50 [31] of the same compound?
**A.** > 100 µM (inactive)

**Q.** And the GI50 [57]?
**A.** > 100 µM (inactive)

**Q.** What about the GI50 [32] of the same compound?
**A.** > 100 µM (inactive)

**Q.** What about the GI50 [33] of the same compound?
**A.** > 100 µM (inactive)

**Q.** And the GI50 [34]?
**A.** > 100 µM (inactive)

**Q.** And the GI50 [35]?
**A.** > 100 µM (inactive)

**Q.** And the GI50 [36]?
**A.** > 100 µM (inactive)

**Q.** What about the GI50 [37] of the same compound?
**A.** > 100 µM (inactive)

**Q.** And the GI50 [38]?
**A.** > 100 µM (inactive)

**Q.** And the GI50 [39]?
**A.** > 100 µM (inactive)

**Q.** What about the GI50 [40] of the same compound?
**A.** > 100 µM (inactive)

**Q.** What about the GI50 [42] of the same compound?
**A.** > 100 µM (inactive)

**Q.** What about the GI50 [43] of the same compound?
**A.** > 100 µM (inactive)

**Q.** What about the GI50 [44] of the same compound?
**A.** > 100 µM (inactive)

**Q.** What about the GI50 [45] of the same compound?
**A.** > 100 µM (inactive)

**Q.** What about the GI50 [46] of the same compound?
**A.** > 100 µM (inactive)

**Q.** What about the GI50 [47] of the same compound?
**A.** > 100 µM (inactive)

**Q.** And the GI50 [48]?
**A.** > 100 µM (inactive)

**Q.** What about the GI50 [58] of the same compound?
**A.** > 100 µM (inactive)

**Q.** What about the GI50 [49] of the same compound?
**A.** > 100 µM (inactive)

**Q.** And the GI50 [50]?
**A.** > 100 µM (inactive)

**Q.** What about the GI50 [51] of the same compound?
**A.** > 100 µM (inactive)

**Q.** What about the GI50 [52] of the same compound?
**A.** > 100 µM (inactive)

**Q.** And the GI50 [53]?
**A.** > 100 µM (inactive)
